Measurements reported in US12679848B2, “Plasma kallikrein inhibitors” (Merck Sharp & Dohme LLC, priority 2020, dated 2026).

What was measured:
human factor XIa = human factor XIa (Homo sapiens, UniProt P03951); assay: Factor XIa Assay; type: biochemical; details: human factor XIa 0.04 nM, substrate GPR-AFC, 30 min pre-incubation, 25° C., pH 7.4; read-out: FXIa IC50
Protocol: (§1) The effectiveness of a compound of the present invention as an inhibitor of Coagulation factor XIa can be determined using a relevant purified serine protease, and an appropriate synthetic substrate. The rate of hydrolysis of the chromogenic or fluorogenic substrate by the relevant serine protease was measured both in the absence and presence of compounds of the present invention. Assays were conducted at rt or at 37° C. […] A decrease in the rate of fluorescence change in the presence of inhibitor is indicative of enzyme inhibition. Such methods are known to one skilled in the art. The results of this assay are expressed as the half-maximal inhibitory concentrations (IC50), or the inhibitory constant, Ki.
Compounds were pre-incubated for 30 min at 25° C. with human (0.04 nM) factor XIa in 50 mM HEPES buffer with 150 mM sodium chloride, 5 mM calcium chloride, 0.1% PEG 8000, pH 7.4. factor XIa enzymatic activity was determined by addition of the substrate glycine-proline-arginine-7-amido-4-trifluoromethylcoumarin (GPR-AFC) and measurement of the fluorescence at 400/505 nm after a 60 min incubation at 25° C. The % inhibition for each data point was calculated from the data and analyzed using the log (inhibitor) vs. response four parameters equation to determine the half-maximal inhibitory concentrations (IC50). The IC50 were converted to equilibrium inhibitory constants (Ki) using the Cheng-Prusoff equation.

Human plasma kallikrein = molecular target: T1, Human plasma kallikrein (Homo sapiens, UniProt P03952); assay: Plasma Kallikrein Assay; type: biochemical; details: purified Human plasma kallikrein 0.5 nM, substrate Acetyl-K-P-R-AFC, HEPES pH 7.4; read-out: PKal IC50
T1 construct: yields a heavy chain (371 amino acids) and a light chain (248 amino acids); The active site of plasma kallikrein is contained in the light chain; purchased Enzyme Research Laboratories
Protocol: as §1, with “plasma kallikrein” for “Coagulation factor XIa”
Plasma kallikrein determinations were made in 50 mM HEPES buffer at pH 7.4 containing 150 mM NaCl, 5 mM CaCl2), and 0.1% PEG 8000 (polyethylene glycol; Fisher Scientific). Determinations were made using purified Human plasma kallikrein at a final concentration of 0.5 nM (Enzyme Research Laboratories) and the synthetic substrate, Acetyl-K—P—R-AFC (Sigma #C6608) at a concentration of […].
Times required to achieve equilibration between enzyme and inhibitor were determined in control experiments. […] IC50 was determined by inflection point from a four parameter logistic curve fit. Ki was calculated using the Cheng Prusoff equation, Ki=IC50/[…](1+([S]/Km)).

Sequence of human factor XIa (P03951 388-625 limits assumed): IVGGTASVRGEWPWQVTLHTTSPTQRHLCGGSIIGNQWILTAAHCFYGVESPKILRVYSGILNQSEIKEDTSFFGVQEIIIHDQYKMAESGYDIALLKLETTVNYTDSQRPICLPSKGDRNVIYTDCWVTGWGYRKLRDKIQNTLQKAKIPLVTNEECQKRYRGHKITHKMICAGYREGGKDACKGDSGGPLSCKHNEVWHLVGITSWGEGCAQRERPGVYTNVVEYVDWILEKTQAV
Sequence of human factor XIa (P03951 19-387 partner limits assumed): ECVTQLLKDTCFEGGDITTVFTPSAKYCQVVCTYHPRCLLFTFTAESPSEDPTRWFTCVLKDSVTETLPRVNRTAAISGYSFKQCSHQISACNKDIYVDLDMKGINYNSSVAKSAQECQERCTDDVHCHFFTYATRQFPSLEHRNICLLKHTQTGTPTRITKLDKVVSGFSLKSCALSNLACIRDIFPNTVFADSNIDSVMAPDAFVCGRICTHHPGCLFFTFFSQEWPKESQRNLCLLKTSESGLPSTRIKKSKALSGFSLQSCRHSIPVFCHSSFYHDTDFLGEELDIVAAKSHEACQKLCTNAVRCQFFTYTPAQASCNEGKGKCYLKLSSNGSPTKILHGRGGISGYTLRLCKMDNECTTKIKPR
T1 sequence (P03952 391-638 limits assumed): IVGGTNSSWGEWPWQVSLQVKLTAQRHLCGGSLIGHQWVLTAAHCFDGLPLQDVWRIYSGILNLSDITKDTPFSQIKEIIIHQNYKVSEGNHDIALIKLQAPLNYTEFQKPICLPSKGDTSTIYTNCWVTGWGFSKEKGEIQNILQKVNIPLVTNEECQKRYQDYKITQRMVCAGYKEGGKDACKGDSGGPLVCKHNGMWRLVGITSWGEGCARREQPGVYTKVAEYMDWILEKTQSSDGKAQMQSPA
T1 sequence (P03952 20-390 partner limits assumed): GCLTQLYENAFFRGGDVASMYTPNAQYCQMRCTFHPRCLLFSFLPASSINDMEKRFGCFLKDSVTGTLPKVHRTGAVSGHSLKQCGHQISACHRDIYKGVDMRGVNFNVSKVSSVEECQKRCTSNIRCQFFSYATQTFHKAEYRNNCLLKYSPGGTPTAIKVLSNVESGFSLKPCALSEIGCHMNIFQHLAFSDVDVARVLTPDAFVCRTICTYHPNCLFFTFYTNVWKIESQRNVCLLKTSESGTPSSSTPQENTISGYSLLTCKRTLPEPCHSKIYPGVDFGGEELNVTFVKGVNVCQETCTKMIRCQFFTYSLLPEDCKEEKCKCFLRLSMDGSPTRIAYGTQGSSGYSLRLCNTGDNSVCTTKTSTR

SMILES | IC50 (human factor XIa) | IC50 (Human plasma kallikrein)
Cc1cccc(Cn2ncc(C(=O)N3CCC[C@@]4(C3)OC(=O)Nc3ccc(Cl)c(F)c34)c2N)c1 [Example 45, (R)-1'-(5-Amino-1-(3-methylbenzyl)-1H-pyrazole-4-carbonyl)-6-chloro-5-fluorospiro[benzo[d][1,3]oxazine-4,3'-piperidin]-2(1H)-one] | 156 nM | 0.7 nM
Nc1c(C(=O)N2CCC[C@@]3(C2)OC(=O)Nc2ccc(Cl)c(F)c23)cnn1-c1c(F)cccc1F [Example 93, (R)-1'-(5-Amino-1-(2,6-difluorophenyl)-1H-pyrazole-4-carbonyl)-6-chloro-5-fluorospiro[benzo[d][1,3]oxazine-4,3'-piperidin]-2(1H)-one] | 418 nM | 10.4 nM
CCOC(=O)c1ccc(C)c(-n2ncc(C(=O)N3CCC[C@@]4(C3)OC(=O)Nc3ccc(Cl)c(F)c34)c2N)c1 [Example 70, Ethyl (R)-3-(5-amino-4-(6-chloro-5-fluoro-2-oxo-1,2-dihydrospiro[benzo[d][1,3]oxazine-4,3'-piperidine]-1'-carbonyl)-1H-pyrazol-1-y1)-4-methylbenzoate] | 1140 nM | 13.4 nM
Nc1c(C(=O)N2CCC[C@@]3(C2)OC(=O)Nc2ccc(Cl)c(F)c23)cnn1Cc1ccc(Cl)cc1 [Example 42, (R)-1'-(5-Amino-1-(4-chlorobenzyl)-1H-pyrazole-4-carbonyl)-6-chloro-5-fluorospiro[benzo[d][1,3]oxazine-4,3'-piperidin]-2(1H)-one] | 504 nM | 1.4 nM
CC1(C)CN(C(=O)c2cnn(-c3ccccc3)c2N)C[C@]2(C1)OC(=O)Nc1ccc(Cl)c(F)c12 [Example 69, (R)-1'-(5-Amino-1-phenyl-1H-pyrazole-4-carbonyl)-6-chloro-5-fluoro-5',5'-dimethylspiro[benzo[d][1,3]oxazine-4,3'-piperidin]-2(1H)-one] | 4590 nM | 41.7 nM
CC1(C)CN(C(=O)c2cnn(Cc3ccccc3)c2N)C[C@]2(C1)OC(=O)Nc1ccc(Cl)c(F)c12 [Example 10, (R)-1'-(5-Amino-1-benzyl-1H-pyrazole-4-carbonyl)-6-chloro-5-fluoro-5',5'-dimethylspiro[benzo[d][1,3]oxazine-4,3'-piperidin]-2(1H)-one] | 122 nM | 1.3 nM
Nc1c(C(=O)N2CCC[C@@]3(C2)OC(=O)Nc2ccc(Cl)c(F)c23)cnn1C1CCCC1 [Example 22, (R)-1'-(5-Amino-1-cyclopenty1-1H-pyrazole-4-carbonyl)-6-chloro-5-fluorospiro[benzo[d][1,3]oxazine-4,3'-piperidin]-2(1H)-one] | 1120 nM | 15.3 nM
Nc1c(C(=O)N2CCC[C@@]3(C2)OC(=O)Nc2ccc(Cl)c(F)c23)cnn1-c1cccc(F)c1OC(F)F [Example 107, (R)-1'-(5-Amino-1-(2-(difluoromethoxy)-3-fluorophenyl)-1H-pyrazole-4-carbonyl)-6-chloro-5-fluorospiro[benzo[d][1,3]oxazine-4,3'-piperidin]-2(1H)-one] | 461 nM | 15.2 nM
COc1ccccc1-n1ncc(C(=O)N2CCC[C@@]3(C2)OC(=O)Nc2ccc(Cl)c(F)c23)c1N [Example 79, (R)-1'-(5-Amino-1-(2-methoxyphenyl)-1H-pyrazole-4-carbonyl)-6-chloro-5-fluorospiro[benzo[d][1,3]oxazine-4,3'-piperidin]-2(1H)-one] | 377 nM | 5.8 nM
CC(C1CC1)(n1ncc(C(=O)N2CCC[C@@]3(C2)OC(=O)Nc2ccc(Cl)c(F)c23)c1N)C(F)(F)F (single isomer, unassigned) [Example 126, (R)-1'-(5-Amino-1-((R or S)-2-cyclopropyl-1,1,1-trifluoropropan-2-y1)-1H-pyrazole-4-carbonyl)-6-chloro-5-fluorospiro[benzo[d][1,3]oxazine-4,3'-piperidin]-2(1H)-one] | 459 nM | 2.2 nM
CC(n1ncc(C(=O)N2CCC[C@@]3(C2)OC(=O)Nc2ccc(Cl)c(F)c23)c1N)C(F)(F)F (single isomer, unassigned) [Example 121, (R)-1'-(5-Amino-1-((S or R)-1,1,1-trifluoropropan-2-y1)-1H-pyrazole-4-carbonyl)-6-chloro-5-fluorospiro[benzo[d][1,3]oxazine-4,3'-piperidin]-2(1H)-one] | 591 nM | 4.9 nM

The next lines start with the values.

IC50 (human factor XIa) | IC50 (Human plasma kallikrein) | SMILES
1370 nM | 1.1 nM | Nc1c(C(=O)N2CCC[C@@]3(C2)OC(=O)Nc2ccc(Cl)c(F)c23)cnn1-c1ccccc1Oc1ccccc1 [Example 96, (R)-1'-(5-Amino-1-(2-phenoxyphenyl)-1H-pyrazole-4-carbonyl)-6-chloro-5-fluorospiro[benzo[d][1,3]oxazine-4,3'-piperidin]-2(1H)-one]
1580 nM | 29 nM | Cc1c(CO)cccc1-n1ncc(C(=O)N2CCC[C@@]3(C2)OC(=O)Nc2ccc(Cl)c(F)c23)c1N [Example 63, (R)-1'-(5-Amino-1-(3-(hydroxymethyl)-2-methylphenyl)-1H-pyrazole-4-carbonyl)-6-chloro-5-fluorospiro[benzo[d][1,3]oxazine-4,3'-piperidin]-2(1H)-one]
352 nM | 8.3 nM | Nc1c(C(=O)N2CCC[C@@]3(C2)OC(=O)Nc2ccc(Cl)c(F)c23)cnn1CC1(C(F)(F)F)CC1 [Example 26, (R)-1'-(5-Amino-1-((1-(trifluoromethyl)cyclopropyl)methyl)-1H-pyrazole-4-carbonyl)-6-chloro-5-fluorospiro[benzo[d][1,3]oxazine-4,3'-piperidin]-2(1H)-one]
103 nM | 2.8 nM | Nc1c(C(=O)N2CCC[C@@]3(C2)OC(=O)Nc2ccc(Cl)c(F)c23)cnn1C(C(F)(F)F)C1(F)CC1 (single isomer, unassigned) [Example 114, (R)-1'-(5-Amino-1-((R or S)-2,2,2-trifluoro-1-(1-fluorocyclopropyl)ethyl)-1H-pyrazole-4-carbonyl)-6-chloro-5-fluorospiro[benzo[d][1,3]oxazine-4,3'-piperidin]-2(1H)-one]
4050 nM | 36.6 nM | CC(=O)Nc1cccc(-n2ncc(C(=O)N3CCC[C@@]4(C3)OC(=O)Nc3ccc(Cl)c(F)c34)c2N)c1 [Example 71, (R)-N-(3-(5-Amino-4-(6-chloro-5-fluoro-2-oxo-1,2-dihydrospiro[benzo[d][1,3]oxazine-4,3'-piperidine]-1'-carbonyl)-1H-pyrazol-1-yl)phenyl)acetamide]
> 10000 nM | 66.1 nM | Nc1c(C(=O)N2CCC[C@@]3(C2)OC(=O)Nc2ccc(Cl)c(F)c23)cnn1-c1cccc(Cl)c1 [Example 110, (R)-1'-(5-Amino-1-(3-chlorophenyl)-1H-pyrazole-4-carbonyl)-6-chloro-5-fluorospiro[benzo[d][1,3]oxazine-4,3'-piperidin]-2(1H)-one]
219 nM | 8.4 nM | CC1(c2ccccc2-n2ncc(C(=O)N3CCC[C@@]4(C3)OC(=O)Nc3ccc(Cl)c(F)c34)c2N)CC1 [Example 98, (R)-1'-(5-Amino-1-(2-(1-methylcyclopropyl)phenyl)-1H-pyrazole-4-carbonyl)-6-chloro-5-fluorospiro[benzo[d][1,3]oxazine-4,3'-piperidin]-2(1H)-one]
1950 nM | 9.2 nM | Cc1cccc(-n2ncc(C(=O)N3CCC[C@@]4(C3)OC(=O)Nc3ccc(Cl)c(F)c34)c2N)c1C [Example 85, (R)-1'-(5-Amino-1-(2,3-dimethylphenyl)-1H-pyrazole-4-carbonyl)-6-chloro-5-fluorospiro[benzo[d][1,3]oxazine-4,3'-piperidin]-2(1H)-one]
2930 nM | 16.9 nM | CC(C)(n1ncc(C(=O)N2CCC[C@@]3(C2)OC(=O)Nc2ccc(Cl)c(F)c23)c1N)C(F)(F)F [Example 49, (R)-1'-(5-Amino-1-(1,1,1-trifluoro-2-methylpropan-2-y1)-1H-pyrazole-4-carbonyl)-6-chloro-5-fluorospiro[benzo[d][1,3]oxazine-4,3'-piperidin]-2(1H)-one]
